According to patent US20240343699A1, “DERIVATIVES OF SUBSTITUTED MORPHOLINES AND USES THEREOF” (Supernus Pharmaceuticals, Inc., priority 2023, published 2024):
pIC50: −log10 of the molar value. Where “and” joins values, the source holds several entries; their conditions need not be identical. Equal entries are not always repeated. Where two headings read alike, the source gives them in different places.

Experiments:
[1] = Metabolic stability in rat liver S9; assay type: in vitro ADME, Sprague Dawley rat; set-up: half-life: dose or concentration left out as unconfirmed
Description: (§1) Incubation Buffer (PBK): 50 mM potassium phosphate buffer was prepared from 1 M potassium phosphate buffer, pH 7.2. […] The dilution of […] was prepared by 90% methanol/10% DMSO, then 10 μM working solutions were prepared by diluting the 0.1 mM intermediates with 50 mM PBK. […] Prior to use, the stock solutions were brought to room temperature and thoroughly mixed. […] Cofactors Solutions: the mixture of cofactors solution was made at 10 mM of NADPH and 10 mM of UDPGA in PBK buffer.
(§2) The incubation was carried out in 96-well plates. The liver S9 working solutions were added to 96-well plates (80 μL/well) in duplicate. […] Reaction was initiated by adding cofactor mixture 10 μL/well. The plates were incubated at 37° C. in a water bath with shaking. […] The final organic solvent content in the incubation was ≤1%.
(§3) At specified time points, i.e., 5, 10, 20, 30 and 60 minutes, NCF60 (without adding NADPH (Nicotinamide-adenine dinucleotide phosphate, reduced form) and UDPGA (Uridine 5′-diphosphoglucuronic acid trisodium salt) replaced with PBK buffer reaction was stopped by adding three volumes of stop solution. The time zero (To) samples were prepared by adding three volumes of stop solution to liver S9 samples, followed by addition of test article or control, and cofactor mixture solution 10 μL/well.
(§4) Subsequently, 100 μL of supernatant.
(§5) Positive controls: 7-ethoxycoumarin and 7-hydroxycoumarin.

[2] = Metabolic stability in human liver S9; assay type: in vitro ADME; details: human liver S9, 1 μM
Description: as §1, §2, §3, §4, §5

behavioral signature = experiment: SmartCube phenotypic screening (class/subclass and DRFA similarity analysis); assay type: in vivo, male C57/B16 mice
Description: A study was conducted to evaluate the CNS-like efficacy of novel test compounds using the SmartCube® System.
Animals. Male C57/B16 mice from Taconic Laboratories (Germantown, NY) were used. Upon receipt, mice were group-housed in OPTIMice® ventilated cages with 4 mice per cage. Mice were acclimated to the colony room for at least one week prior to test, and subsequently tested at approximately 8-9 weeks of age. All animals were examined, handled, and weighed prior to initiation of the study to assure adequate health and suitability and to minimize nonspecific stress associated with manipulation. During the course of the study, 12/12 light/dark cycles were maintained. The room temperature was 20-23° C. with a relative humidity maintained between 30-70%. Chow and water were provided ad libitum for the duration of the study.
Test compounds. All compounds were administered orally at a dose volume of 10 mL/kg, 20 minutes prior to testing. Formulations were prepared fresh on day of testing and dosing was completed within one hour of formulation. Compounds were prepared according to the table below. Twelve mice were used in each treatment group:
SmartCube®. The SmartCube® system is designed to and can successfully measure numerous spontaneous behaviors and response to challenges in the same testing environment. The hardware includes force sensors and a number of aversive stimuli to elicit behavior. Three high-resolution video cameras provide constant 3D view of the mouse in the SmartCube® apparatus (SC) throughout the entire testing period. During the 45-minute test session the mice are exposed to a sequence of challenges. The cubes are cleaned between each run.
Digital videos of the subjects were processed through computer segmentation algorithms to fit geometrical models to each mouse frame image. The resulting fitted parameters were then analyzed using behavioral classifier algorithms to extract behavioral states, such as rearing, locomotion, and immobility. The data obtained in this way was used to define a drug signature for PGI's known reference compounds and establish a therapeutic class signature against which a test sample can be compared.
The data mining effort utilizes several analytical methods including Bayesian probabilistic density models and Decision trees. The algorithms consider ˜2,600 measures including frequency and duration of behavioral states such as grooming, rearing, etc., and many other features obtained during the test session.
Two major types of analyses are routinely conducted: Class and subclass.
Each reference drug was tested at multiple doses appropriate for that drug in mice.
Multiple analyses of the data were performed to quantitatively produce independent predictions of drug class, and drug subclass. The behavioral signatures of the test drugs were evaluated using these classifiers to predict potential therapeutic utility.
The results for the class and subclass analyses are presented as standardized bar charts with percentages that sum to 100 for each dose.
Similarity Analysis Using “Clouds Framework”. The outcome from SmartCube® is a large set of features (behavioral parameters) that can be used for various analyses. […] Therefore, we formed statistically independent combinations of the original features (further referred to as de-correlated features). Each de-correlated feature extracted information from the whole cluster of the original features, so the new feature space would have lower dimensionality. Next, we applied a proprietary feature ranking algorithm to score each feature for its discrimination power (ability to separate the two groups, e.g. vehicle from treatment). Ranking is an important part of our analyses because it weighs each feature change by its relevance. We applied a feature ranking algorithm, derived from support vector in the support vector machine learning method, to rank each feature.

hNav1.5 = biological target: T1, hNav1.5 (Homo sapiens, UniProt Q14524); experiment: Nav1.5 human sodium ion channel cell based automated patch clamp assay (QPatch HT); details: Antagonist
T1 construct: CYL6004QP2DR
T1 sequence (Q14524 whole entry): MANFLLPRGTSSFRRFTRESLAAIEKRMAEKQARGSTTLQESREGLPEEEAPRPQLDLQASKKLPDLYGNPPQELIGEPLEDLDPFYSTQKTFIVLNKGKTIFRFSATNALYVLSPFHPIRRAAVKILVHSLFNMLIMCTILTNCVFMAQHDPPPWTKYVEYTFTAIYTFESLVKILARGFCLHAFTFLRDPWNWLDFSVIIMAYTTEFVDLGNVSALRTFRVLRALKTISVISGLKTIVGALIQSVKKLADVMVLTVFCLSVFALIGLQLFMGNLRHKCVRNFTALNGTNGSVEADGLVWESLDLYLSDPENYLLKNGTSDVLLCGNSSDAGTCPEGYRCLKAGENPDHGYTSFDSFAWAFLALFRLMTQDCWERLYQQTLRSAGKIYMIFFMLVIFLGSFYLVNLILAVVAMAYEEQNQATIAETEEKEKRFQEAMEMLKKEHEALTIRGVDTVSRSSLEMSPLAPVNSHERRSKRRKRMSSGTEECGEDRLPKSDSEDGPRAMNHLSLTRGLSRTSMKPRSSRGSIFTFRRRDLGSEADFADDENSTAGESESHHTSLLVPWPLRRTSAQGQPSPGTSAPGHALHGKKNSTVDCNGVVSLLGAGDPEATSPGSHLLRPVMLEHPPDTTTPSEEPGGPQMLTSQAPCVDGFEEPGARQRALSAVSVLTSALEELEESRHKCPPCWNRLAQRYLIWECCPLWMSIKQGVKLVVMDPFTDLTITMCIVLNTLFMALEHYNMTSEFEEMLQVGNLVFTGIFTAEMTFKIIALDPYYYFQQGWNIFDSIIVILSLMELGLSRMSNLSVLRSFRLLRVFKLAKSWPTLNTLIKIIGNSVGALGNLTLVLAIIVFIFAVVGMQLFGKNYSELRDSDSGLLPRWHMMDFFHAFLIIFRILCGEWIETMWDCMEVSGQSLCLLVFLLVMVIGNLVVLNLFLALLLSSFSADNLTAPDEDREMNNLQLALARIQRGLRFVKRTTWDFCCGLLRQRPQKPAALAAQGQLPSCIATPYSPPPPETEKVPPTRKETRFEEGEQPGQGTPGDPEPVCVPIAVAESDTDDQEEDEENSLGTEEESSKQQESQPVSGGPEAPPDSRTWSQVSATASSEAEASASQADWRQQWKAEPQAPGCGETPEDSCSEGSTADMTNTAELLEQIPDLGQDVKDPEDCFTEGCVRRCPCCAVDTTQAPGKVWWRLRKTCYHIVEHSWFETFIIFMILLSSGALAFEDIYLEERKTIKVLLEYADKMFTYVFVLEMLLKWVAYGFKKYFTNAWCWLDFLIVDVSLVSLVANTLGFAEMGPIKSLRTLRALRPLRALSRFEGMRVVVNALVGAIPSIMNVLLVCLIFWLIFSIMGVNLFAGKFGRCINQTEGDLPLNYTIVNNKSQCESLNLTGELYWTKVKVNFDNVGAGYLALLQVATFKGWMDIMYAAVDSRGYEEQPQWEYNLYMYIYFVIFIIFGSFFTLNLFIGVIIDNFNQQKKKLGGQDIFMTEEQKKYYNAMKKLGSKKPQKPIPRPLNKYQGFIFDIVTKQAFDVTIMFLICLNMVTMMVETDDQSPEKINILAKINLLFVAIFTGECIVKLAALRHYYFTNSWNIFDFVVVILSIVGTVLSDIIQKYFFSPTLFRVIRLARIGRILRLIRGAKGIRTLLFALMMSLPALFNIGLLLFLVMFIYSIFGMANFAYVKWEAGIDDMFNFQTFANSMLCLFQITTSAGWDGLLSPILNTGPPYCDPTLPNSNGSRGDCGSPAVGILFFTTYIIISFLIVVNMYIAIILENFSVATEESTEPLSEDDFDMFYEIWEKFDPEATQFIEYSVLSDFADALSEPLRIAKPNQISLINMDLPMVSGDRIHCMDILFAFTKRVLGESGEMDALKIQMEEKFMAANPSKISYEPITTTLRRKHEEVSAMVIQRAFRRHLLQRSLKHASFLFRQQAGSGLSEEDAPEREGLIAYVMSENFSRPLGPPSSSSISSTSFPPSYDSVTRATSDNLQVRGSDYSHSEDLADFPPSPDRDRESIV
Description: Electrophysiological assays were conducted to profile five compounds for activities on the ion channel target using the QPatch HT electrophysiological platform.
CYL6004QP2DR Nav1.5 Human Sodium Ion Channel Cell Based Automated Patch Clamp Assay. Cells were held at −120 mV for 100 ms, stepped to −130 mV for 100 ms, and stepped back to −120 mV for 100 ms to measure the leak current. Na channels exist in a) resting or closed state at −120 mV, b) a transient open state that inactivates to c) inactivated state at −10 mV. Na current inhibition within 1-2 ms of channel opening at −10 mV is open channel inhibition (pulse 1). […] Pulse 1 and 2 are used to investigate drug binding to the open state and inactivated state of the Na channels, respectively. Each concentration of compound was applied for 5 minutes.
Current amplitudes more than 200 pA at the control stage were analyzed. The amplitude of the current was calculated by measuring the difference between the peak inward current on stepping to −10 mV (i.e. peak of the current) and remaining current at the end of the step. The current was assessed in vehicle control conditions and then at the end of each five (5) minute compound application.

[3] = rat liver S9, 1 μM, NCF60 (no cofactors, 60 min)

SMILES: CCOc1ccccc1OC[C@@H]1CN(C(=O)OC(OC(=O)[C@@H](N)C(C)C)C(C)C)CCO1 (stereo partly shown) [COMPOUND B]
- half-life ([1]; Sprague Dawley (rat), pH 7.2, rat, dog and human liver S9 incubations (summary over species), read-out: half-lives): 4 to 12 min
- half-life at 1 μM ([1]; Sprague Dawley, pH 7.2, rat liver S9, 1 μM): 4.09 min
- microsomal CLint at 1 μM ([1]; Sprague Dawley, pH 7.2, rat liver S9, 1 μM, read-out: CLint(LS9)): 339 µL/min/mg
- % Remaining ([1]; rat liver S9, 1 μM, 0 min): 100%
- Analyte Peak area/IS Peak area Mean × 100 (n = 2) ([1]; rat liver S9, 1 μM, 0 min): 7.71
- % Remaining ([1]; rat liver S9, 1 μM, 5 min): 6.8%
- Analyte Peak area/IS Peak area Mean × 100 (n = 2) ([1]; rat liver S9, 1 μM, 5 min): 0.524
- % Remaining ([1]; rat liver S9, 1 μM, 10 min): 4.6%
- Analyte Peak area/IS Peak area Mean × 100 (n = 2) ([1]; rat liver S9, 1 μM, 10 min): 0.351
- % Remaining ([1]; rat liver S9, 1 μM, 20 min): 2.3%
- Analyte Peak area/IS Peak area Mean × 100 (n = 2) ([1]; rat liver S9, 1 μM, 20 min): 0.174
- % Remaining ([1]; rat liver S9, 1 μM, 30 min): 0.2%
- Analyte Peak area/IS Peak area Mean × 100 (n = 2) ([1]; rat liver S9, 1 μM, 30 min): 0.019
- % Remaining ([1]; rat liver S9, 1 μM, 60 min): 0.08% and 0.1%
- Analyte Peak area/IS Peak area Mean × 100 (n = 2) ([1]; rat liver S9, 1 μM, 60 min): 0.006
- % Remaining [1, 3]: 0.4%
- Analyte Peak area/IS Peak area Mean × 100 (n = 2) [1, 3]: 0.029
- % Remaining ([2]; 0 min): 100%
- Analyte Peak area/IS Peak area Mean × 100 (n = 2) ([2]; 0 min): 8.22
- % Remaining ([2]; 5 min): 14%
- Analyte Peak area/IS Peak area Mean × 100 (n = 2) ([2]; 5 min): 1.12
- % Remaining ([2]; 10 min): 12%
- Analyte Peak area/IS Peak area Mean × 100 (n = 2) ([2]; 10 min): 0.973
- % Remaining ([2]; 20 min): 4.2%
- Analyte Peak area/IS Peak area Mean × 100 (n = 2) ([2]; 20 min): 0.342
- % Remaining ([2]; 30 min): 1.6%
- Analyte Peak area/IS Peak area Mean × 100 (n = 2) ([2]; 30 min): 0.131
- % Remaining ([2]; 60 min): 0.24% and 0.2%
- Analyte Peak area/IS Peak area Mean × 100 (n = 2) ([2]; 60 min): 0.020
- % Remaining ([2]; NCF60 (no cofactors, 60 min)): 1.2%
- Analyte Peak area/IS Peak area Mean × 100 (n = 2) ([2]; NCF60 (no cofactors, 60 min)): 0.099
- half-life at 1 μM ([2]; pH 7.2): 7.74 min
- microsomal CLint at 1 μM ([2]; pH 7.2, read-out: CLint(LS9)): 179 µL/min/mg
- behavioral activity (class/subclass analysis) (behavioral signature; 90 and 120 mg/kg PO): high behavioral activity
- Subclass signature (behavioral signature; COMPOUND A 30-120 mg/kg, COMPOUND B 90 and 120 mg/kg PO): predominantly cognitive enhancer-like
- pIC50 (hNav1.5; Pulse 1 (open state), read-out: Estimated IC50 (Pulse 1)): < 4.00
- pIC50 (hNav1.5; Pulse 2 (inactivated state), read-out: Estimated IC50 (Pulse 2)): 5.12
